Data from publication PMC3022706 (BMC Microbiology, 2010).

T1: Dld (Cg1027), quinone-dependent D-lactate dehydrogenase (Corynebacterium glutamicum, UniProt Q8NRY8)
T1 construct: PCR fragment printed as 1,020 bp but gene coordinates 955683-957398 imply 571 residues; reverse primer dld2 lacks stop codon; abstract also misprints Cg1067
T1 sequence (Q8NRY8 1-571): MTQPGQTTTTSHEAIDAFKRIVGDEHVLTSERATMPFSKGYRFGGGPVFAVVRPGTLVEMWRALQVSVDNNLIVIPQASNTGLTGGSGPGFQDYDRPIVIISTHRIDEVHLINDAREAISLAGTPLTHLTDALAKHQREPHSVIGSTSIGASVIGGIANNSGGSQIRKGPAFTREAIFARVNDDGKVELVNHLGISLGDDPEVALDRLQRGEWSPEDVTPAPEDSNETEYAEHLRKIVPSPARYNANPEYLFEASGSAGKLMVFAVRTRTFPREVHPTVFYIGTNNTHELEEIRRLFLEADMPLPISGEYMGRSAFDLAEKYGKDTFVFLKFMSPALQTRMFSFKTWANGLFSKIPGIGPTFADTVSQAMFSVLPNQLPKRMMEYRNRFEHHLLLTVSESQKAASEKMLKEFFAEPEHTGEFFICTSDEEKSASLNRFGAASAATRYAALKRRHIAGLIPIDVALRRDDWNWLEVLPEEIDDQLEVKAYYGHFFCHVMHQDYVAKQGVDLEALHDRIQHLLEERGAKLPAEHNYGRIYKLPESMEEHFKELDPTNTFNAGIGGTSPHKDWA

B1: Dld (Cg1027), quinone-dependent D-lactate dehydrogenase (Corynebacterium glutamicum ATCC 13032) (protein)
chain: T1 sequence (Q8NRY8 1-571)

Key:
[1] = biological target: T1, Dld (Cg1027), quinone-dependent D-lactate dehydrogenase; test: absorption spectrum of purified protein ([…] and […] nm); type: binding; settings: bound cofactor, co-purified; non-covalent; identified from spectrum and FAD domain
purified protein = substrate: C[C@@H](O)C(=O)O; test: purified protein; settings: 2,6-dichloroindophenol as electron acceptor, 30 °C, potassium phosphate, pH optimum 7.0, Discussion prints 0.62 mM

Row | Molecule | absorption spectrum of purified protein (375 and 445 nm) [1] | Km (purified protein) [µM]
1 | Cc1cc2nc3c(=O)[nH]c(=O)nc-3n(C[C@H](O)[C@H](O)[C@H](O)COP(=O)(O)OP(=O)(O)OC[C@H]3O[C@@H](n4cnc5c(N)ncnc54)[C@H](O)[C@@H]3O)c2cc1C [FAD] | These results suggest that D-lactate dehydrogenase from C. glutamicum contains FAD as a bound cofactor | –
2 | B1 | – | 610
